# Experimental data as given in patent publication US20240343733A1, “COMPOUNDS FOR TARGETING DEGRADATION OF IRAK4 PROTEINS” (BIOGEN MA INC., priority 2021, published 2024).
# Target: T1, IRAK4 (Homo sapiens, UniProt Q9NWZ3)
# T1 construct: 293Tcells expressing HiBiT-tagged IRAK4 were then added into 384-well plates
# T1 sequence (Q9NWZ3 1-460): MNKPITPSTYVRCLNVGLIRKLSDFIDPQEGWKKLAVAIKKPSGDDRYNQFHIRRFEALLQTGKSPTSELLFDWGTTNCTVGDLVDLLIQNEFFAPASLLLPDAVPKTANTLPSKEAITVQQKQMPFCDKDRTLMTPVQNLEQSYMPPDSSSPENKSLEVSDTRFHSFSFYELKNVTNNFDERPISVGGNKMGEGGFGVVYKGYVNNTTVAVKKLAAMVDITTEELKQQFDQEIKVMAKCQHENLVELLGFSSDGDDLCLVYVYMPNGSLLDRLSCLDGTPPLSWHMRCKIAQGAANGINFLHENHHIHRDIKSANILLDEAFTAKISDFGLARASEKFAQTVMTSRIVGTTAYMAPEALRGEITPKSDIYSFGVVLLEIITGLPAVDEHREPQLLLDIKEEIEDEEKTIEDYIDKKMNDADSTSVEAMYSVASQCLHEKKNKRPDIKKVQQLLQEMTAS
# Assay: IRAK4 Degradation Assay, HiBiT Method
# Format: cell-based
# Conditions: 293T cells expressing HiBiT-tagged IRAK4, 6 hours
# Procedure, shortened: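 293T cells with HiBiT knocked in at the C-terminus of endogenous IRAK4, 10,000 per well, treated 6 h at 37 °C with an 11-point half-log series ([…]), in duplicate. Remaining IRAK4 read by Nano-Glo HiBiT lytic luminescence against DMSO-only and media-only controls.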
row,SMILES,DC50
1,"CC(C)Oc1cc2nc(C3CCN(C(=O)CCCNc4ccc(C5CCC(=O)NC5=O)cn4)CC3)cn2cc1C(=O)Nc1cccn([C@H]2C[C@H]2F)c1=O (stereo partly drawn) [Example 164, 2-(1-(4-((5-(2,6-dioxopiperidin-3-yl)pyridin-2-yl)amino)butanoyl)piperidin-4-yl)-N-(1-((1S,2R)-2-fluorocyclopropyl)-2-oxo-1,2-dihydropyridin-3-yl)-7-isopropoxyimidazo[1,2-a]pyridine-6-carboxamide]",10 to 100 nM
2,"CC(C)Oc1cc2nc(C3CCN(C(=O)CC4(O)CCN(c5ccc(NC6CCC(=O)NC6=O)cc5)CC4)CC3)cn2cc1C(=O)Nc1cccc(C(F)(F)F)n1 (centres unmarked) [Example 72, 2-[1-[2-[1-[4-[(2,6-dioxo-3-piperidyl)amino]phenyl]-4-hydroxy-4-piperidyl]acetyl]-4-piperidyl]-7-isopropoxy-N-[6-(trifluoromethyl)-2-pyridyl]imidazo[1,2-a]pyridine-6-carboxamide]",10 to 100 nM
3,"CC(C)Oc1cc2nc([C@H]3CC[C@H](CN(C)C4CCN(Cc5cccc(NC6CCC(=O)NC6=O)c5)CC4)CC3)cn2cc1C(=O)Nc1cccc(C(F)F)n1 (some centres unmarked) [Example 34, N-[6-(difluoromethyl)-2-pyridyl]-2-[4-[[[1-[[3-[(2,6-dioxo-3-piperidyl)amino]phenyl]methyl]-4-piperidyl]-methyl-amino]methyl]cyclohexyl]-7-isopropoxy-imidazo[1,2-a]pyridine-6-carboxamide]",100 to 500 nM
4,"CC(C)Oc1cc2nn(C3CCN(C(=O)CN4CCC(c5ccc(NC6CCC(=O)NC6=O)cc5F)CC4)CC3)cc2cc1C(=O)Nc1cccc(C(F)F)n1 (centres unmarked) [Example 64, N-(6-(difluoromethyl)pyridin-2-yl)-2-(1-(2-(4-(4-((2,6-dioxopiperidin-3-yl)amino)-2-fluorophenyl)piperidin-1-yl)acetyl)piperidin-4-yl)-6-isopropoxy-2H-indazole-5-carboxamide]",500 to 1000 nM
5,"CC(C)Oc1cc2nc(C3CCN(C(=O)CN4CCC(c5ccc(NC6CCC(=O)NC6=O)nc5)CC4)CC3)cn2cc1C(=O)Nc1cccc(C(F)F)n1 (centres unmarked) [Example 86, N-[6-(difluoromethyl)-2-pyridyl]-2-[1-[2-[4-[6-[(2,6-dioxo-3-piperidyl)amino]-3-pyridyl]-1-piperidyl]acetyl]-4-piperidyl]-7-isopropoxy-imidazo[1,2-a]pyridine-6-carboxamide]",10 to 100 nM

# Continued, values first:
row,DC50,SMILES
1,10 to 100 nM,"CC(C)Oc1cc2nc([C@H]3CC[C@H](CN4CCC(c5ccc6c(c5)n(C)c(=O)n6C5CCC(=O)NC5=O)C(F)(F)C4)CC3)cn2cc1C(=O)Nc1cccc(C(F)F)n1 (some centres unmarked) [Example 29, N-[6-(difluoromethyl)-2-pyridyl]-2-[4-[[4-[1-(2,6-dioxo-3-piperidyl)-3-methyl-2-oxo-benzimidazol-5-yl]-3,3-difluoro-1-piperidyl]methyl]cyclohexyl]-7-isopropoxy-imidazo[1,2-a]pyridine-6-carboxamide]"
2,< 10 nM,"CC(C)Oc1cc2nc([C@H]3CC[C@H](CN4CC[C@H](c5ccc6c(N7CCC(=O)NC7=O)nn(C)c6c5)[C@H](O)C4)CC3)cn2cc1C(=O)Nc1cccn([C@H]2C[C@H]2F)c1=O [Example 171, 2-((1S,4S)-4-(((3S,4R)-4-(3-(2,4-dioxotetrahydropyrimidin-1(2H)-yl)-1-methyl-1H-indazol-6-yl)-3-hydroxypiperidin-1-yl)methyl)cyclohexyl)-N-(1-((1S,2R)-2-fluorocyclopropyl)-2-oxo-1,2-dihydropyridin-3-yl)-7-isopropoxyimidazo[1,2-a]pyridine-6-carboxamide]"
3,< 10 nM,"CC(C)Oc1cc2nn([C@H]3CC[C@H](CN4CC[C@H](c5cc6c(cc5F)c(N5CCC(=O)NC5=O)nn6C)[C@H](O)C4)CC3)cc2cc1C(=O)Nc1cccn([C@H]2C[C@H]2F)c1=O [Example 184, 2-((1S,4S)-4-(((3S,4R)-4-(3-(2,4-dioxotetrahydropyrimidin-1(2H)-yl)-5-fluoro-1-methyl-1H-indazol-6-yl)-3-hydroxypiperidin-1-yl)methyl)cyclohexyl)-N-(1-((1S,2R)-2-fluorocyclopropyl)-2-oxo-1,2-dihydropyridin-3-yl)-6-isopropoxy-2H-indazole-5-carboxamide]"
